Assays:
[1] = system: advanced cancer; test: HHBB: Phase 1 dose-escalation study of taladegib in patients with advanced cancer; type: in vivo, human; details: N=84, monotherapy, RECIST v1.1
Excerpt: (§1) Approximately 192 study participants have received at least one dose of taladegib in sponsor-initiated and -controlled trials for the treatment of advanced cancers. The clinical trials were: • q. HHBB: Phase 1 dose-escalation study to evaluate the safety and tolerability of taladegib in patients with advanced cancer. • r. HHBE: Phase Ib/2 double-blind randomized study of the Human smoothened (hSmo) antagonist taladegib in combination with carboplatin and etoposide followed by taladegib versus carboplatin and etoposide plus placebo followed by placebo in patients with extensive stage small cell lung cancer (SCLC). • s. HHBH: Phase 1 study of taladegib in Japanese patients with advanced solid tumors. • t. HIPROC: An investigator-initiated Phase 1a/1b dose-escalation study of taladegib in combination with weekly intravenous paclitaxel in patients with advanced solid cancers. • u. HHBF: A Phase 1 ^14C metabolism study of 100 mg of taladegib in healthy subjects. • v. HHBG: A Phase 1 single ascending dose study of taladegib in healthy subjects.
(§2) Participants include approximately 156 advanced cancer patients from studies HHBB (N=95), HHBE (N=26), HHBH (N=19), HIPROC (N=16) and 36 healthy volunteers from studies HHBG (N=30) and HHBF (N=6).
(§3) The primary tumor type enrolled was BCC. Additionally, responses in medulloblastoma (monotherapy), SCLC (in combination with carboplatin and etoposide) and ovarian cancer (in combination with paclitaxel) were also observed.

[2] = system: advanced cancer; test: HHBB addendum; type: in vivo, human; details: N=11, RECIST v1.1
Excerpt: as §3

[3] = system: advanced solid tumors; test: HHBH: Phase 1 study of taladegib in Japanese patients with advanced solid tumors; type: in vivo, human; details: N=19, RECIST v1.1
Excerpt: as §1, §2, §3

[4] = system: extensive stage small cell lung cancer (SCLC); test: HHBE: Phase Ib/2 study of taladegib with carboplatin and etoposide in extensive stage SCLC; type: in vivo, human; details: in combination with carboplatin and etoposide, N=26, RECIST v1.1
Excerpt: as §1, §2, §3

[5] = system: advanced solid cancers; test: HIPROC: Phase 1a/1b dose-escalation study of taladegib with weekly intravenous paclitaxel; type: in vivo, human; details: in combination with weekly intravenous paclitaxel, N=16, RECIST v1.1
Excerpt: as §1, §2, §3

[6] = system: advanced cancer; test: Clinical benefit across all completed studies of taladegib in advanced cancer (total); type: in vivo, human
Excerpt: as §1, §2, §3

[7] = Safety in clinical trials of taladegib (healthy volunteers and advanced cancer patients); type: in vivo, human
Excerpt: as §1, §2
As expected, AEs associated with chemotherapy were also observed when taladegib was used in combination with anti-neoplastic agents.

[8] = system: Gli1 activity; details: Daoy cells; as described in U.S. Pat. No. 9,000,023; read-out: IC50, inhibition of Gli1 activity; cited from earlier work
[9] = background statement on Hh pathway inhibitors; cited from earlier work
[10] = Total of all completed studies, N=156

Question: With CN(C(=O)c1ccc(F)cc1C(F)(F)F)C1CCN(c2nnc(-c3ccnn3C)c3ccccc23)CC1 [Taladegib, 4-Fluoro-N-methyl-N-(1-(4-(1-methyl-1H-pyrazol-5-yl)phthalazin-1-yl)piperidin-4-yl)-2-(trifluoromethyl)benzamide] as the compound, how does the “CR (complete response), number of patients” value (“CR … number of patients” for short) [1] read?
Answer: The value was 5.

Question: What about the “CR (complete response), percent of patients” value (from here on “CR … percent of patients”) [1] of the same compound?
Answer: The value was 6%.

Question: And the “Clinical Benefit, number of patients” value [1]?
Answer: The value was 48.

Question: What about the “Clinical Benefit, percent of patients” value [1] of the same compound?
Answer: The value was 57%.

Question: And the “PR (partial response), number of patients” value (shortened to “PR … number of patients”) [1]?
Answer: The value was 17.

Question: And the “PR (partial response), percent of patients” value (“PR … percent of patients” below) [1]?
Answer: The value was 20%.

Question: And the “CR … number of patients” value [2]?
Answer: Its value is 1.

Question: What about the “CR … percent of patients” value [2] of the same compound?
Answer: Its value is 9%.

Question: What about the “Clinical Benefit, number of patients” value [2] of the same compound?
Answer: Its value is 4.

Question: And the “Clinical Benefit, percent of patients” value [2]?
Answer: Its value is 36%.

Question: What about the “PR … number of patients” value [2] of the same compound?
Answer: The value was 0.

Question: And the “CR … number of patients” value [3]?
Answer: The value was 0 (0%).

Question: And the “CR … percent of patients” value [3]?
Answer: The value was 0 (0%).

Question: And the “Clinical Benefit, number of patients” value [3]?
Answer: The value was 5.

Question: And the “Clinical Benefit, percent of patients” value [3]?
Answer: Its value is 26%.

Question: And the “PR … number of patients” value [3]?
Answer: Its value is 1.

Question: And the “PR … percent of patients” value [3]?
Answer: The value was 5%.

Question: What about the “CR … number of patients” value [4] of the same compound?
Answer: Its value is 0 (0%).

Question: What about the “CR … percent of patients” value [4] of the same compound?
Answer: Its value is 0 (0%).

Question: And the “Clinical Benefit, number of patients” value [4]?
Answer: Its value is 21.

Question: What about the “Clinical Benefit, percent of patients” value [4] of the same compound?
Answer: The value was 81%.

Question: And the “PR … number of patients” value [4]?
Answer: Its value is 14.

Question: And the “PR … percent of patients” value [4]?
Answer: Its value is 54%.

Question: And the “CR … number of patients” value [5]?
Answer: The value was 0 (0%).

Question: What about the “CR … percent of patients” value [5] of the same compound?
Answer: The value was 0 (0%).

Question: What about the “Clinical Benefit, number of patients” value [5] of the same compound?
Answer: Its value is 10.

Question: And the “Clinical Benefit, percent of patients” value [5]?
Answer: The value was 62%.

Question: What about the “PR … number of patients” value [5] of the same compound?
Answer: Its value is 4.

Question: What about the “PR … percent of patients” value [5] of the same compound?
Answer: Its value is 25%.

Question: What about the “CR … number of patients” value [6, 10] of the same compound?
Answer: Its value is 6.

Question: What about the “CR … percent of patients” value [6, 10] of the same compound?
Answer: The value was 4%.

Question: What about the “Clinical Benefit, number of patients” value [6, 10] of the same compound?
Answer: The value was 94.

Question: What about the “Clinical Benefit, percent of patients” value [6, 10] of the same compound?
Answer: The value was 60%.

Question: And the “PR … number of patients” value [6, 10]?
Answer: Its value is 42.

Question: And the “PR … percent of patients” value [6, 10]?
Answer: Its value is 27%.

Question: What about the “Clinical (RECIST v1.1) responses by dose” value ([6]; across all four multiple-dose studies in patients) of the same compound?
Answer: Its value is “responses were observed at all doses”.

Question: What about the “Responses in SCLC” value ([6]; in combination with carboplatin and etoposide) of the same compound?
Answer: Its value is “observed”.

Question: And the “Responses in ovarian cancer” value ([6]; in combination with paclitaxel)?
Answer: Its value is “observed”.

Question: What about the Responses in medulloblastoma ([6]; monotherapy) of the same compound?
Answer: Its Responses in medulloblastoma is “observed”.

Question: And the Safety profile ([7]; advanced cancer patients, monotherapy and combination with anti-neoplastic agents)?
Answer: Its Safety profile is “manageable safety profile”.

Question: And the “Most commonly observed AEs” value ([7]; as a monotherapy)?
Answer: The value was “nausea, diarrhea, dysgeusia, fatigue, decreased appetite, alopecia, vomiting, muscle spasm, constipation, weight decrease, and headache”.

Question: And the “Important potential risks associated with treatment” value ([7]; on the basis of preclinical and clinical data and information for molecules in the same therapeutic class)?
Answer: Its value is “hepatic injury, embryotoxicity and teratogenicity, and rhabdomyolysis”.

Question: What about the IC50 [8] of the same compound?
Answer: The IC50 was about 2.4 nM.

Question: With CC1=C2C[C@H]3[C@@H](CC[C@@H]4C[C@H](NS(C)(=O)=O)CC[C@@]43C)[C@@H]2CC[C@@]2(C1)O[C@@H]1C[C@H](C)CN[C@H]1[C@H]2C [saridegib] as the compound, how does the Toxicity [9] read?
Answer: Its Toxicity is “unacceptable toxicity”.

Question: With CS(=O)(=O)c1ccc(C(=O)Nc2ccc(Cl)c(-c3ccccn3)c2)c(Cl)c1 [vismodegib] as the compound, how does the Toxicity [9] read?
Answer: The Toxicity was “unacceptable toxicity”.

Source: patent publication US20230181584A1, “METHOD OF TREATING CANCER HAVING AN ACTIVATED HEDGEHOG PATHWAY” (Endeavor Biomedicines, Inc., priority 2021, published 2023)
